# Test system: MCF7
# Assay: Activity at estrogen receptor expressed in human MCF7 cells assessed as increase in receptor-mediated transcription by ERE-luciferase reporter gene assay relative to estradiol
# Format: cell-based
# Parameters: concentration or dose not given beside the values
row,SMILES,Activity
1,Cn1c(N)nc2ncc(-c3ccccc3)cc21,< 50%
2,CCOC(=O)[C@@H]1[C@H](C(=O)OCC)[C@@H]2O[C@H]1C(c1ccc(O)cc1)=C2c1ccc(O)cc1,10%
3,COC(=O)C1=C(C(=O)OC)[C@@H]2O[C@H]1C(c1ccc(O)cc1)=C2c1ccc(O)cc1,50%
4,Oc1ccc(-c2n[nH]c3c(O)cccc23)c(O)c1,< 50%
5,Oc1ccc(-c2c(-c3ccccc3)nn3c(C(F)(F)F)cc(C(F)(F)F)nc23)cc1,10%

# Reference: ChEMBL document CHEMBL1212702
